Entries after “also recorded” stand apart in the source; their conditions may differ. Where a SMILES comes first, the peptide text is derived from it. [ ]: non-standard residue; d: D form.

We go through 4 molecules from patent US9896487B2, “Amyloidosis-inhibiting polypeptides and their use” (UNIVERSITY OF WASHINGTON THROUGH ITS CENTER FOR …, priority 2013, dated 2018).

For data set [1], the target named is T1, Aβ (Homo sapiens, UniProt P05067).
T1 construct: Aβ (1-42) (AMYD-002; CPC Scientific, Sunnyvale Calif.); purchased CPC Scientific, Sunnyvale Calif; AMYD-002
T1 sequence (P05067 672-713 limits assumed): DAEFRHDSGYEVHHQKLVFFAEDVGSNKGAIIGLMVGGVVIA
As to the kind of experiment: Immobilized designs on agarose beads, binding of Aβ from solution (dot blot). To be noted: immobilized design; for binding of pre-aggregated, toxic Aβ: Aβ pre-aggregated for 6 hrs.

The nature of data set [2]: Solubility and solution behaviour of the designs. To be noted: for solubility: aqueous solution-phase experiments.
Data set [3] has as its target T2, transthyretin (TTR) (Homo sapiens, UniProt P02766).
T2 construct: purchased Lee Biosolutions, St. Louis Mo; 496-11
As to the kind of experiment: TTR fibrillization assay (Congo red binding). Format: biochemical. To be noted: for inhibition of the remaining TTR aggregation: peptide added to 24-hour pre-incubated, toxic TTR, versus aggregation in the absence of inhibitor. As to the method:
Aliqouts of transthyretin (TTR) (496-11; Lee Biosolutions, St. Louis Mo.) were made from a 1 mg/mL solution 20 mM ammonium carbonate, pH 8. Aliquots were lyophilized and stored at −18° C. Prior to use, TTR was dissolved to 80 μM (monomer) in acetate buffer (50 mM potassium acetate, 100 mM potassium chloride pH 4.5) and sonicated for 10 minutes. The stock solution was centrifuged before use. Peptide designs were added to stock TTR to a final TTR concentration of 40 μM (monomer) in acetate buffer (pH 4.5) in 500 μL microcentrifuge tubes, which were incubated at 37° C. Periodically, samples were collected from the TTR:peptide mixture by briefly centrifuging, and then carefully pipetting the solution up and down prior to withdrawing a 10 μL sample and diluting it in 190 μL of 10 μM Congo red in an individual well of a 96-well assay plate. Each measurement was performed in triplicate. Absorbance measurements were taken at 477 and 540 nm. Relative Congo red binding was determined using the method of Klunk et al. using the relationship: rCb=(Abs540/25,295)−(Abs477/46,306) (40). All datapoints were normalized to the value recorded for TTR alone pH 4.5 at 48 hrs.
(§1) The “control” designs were tested as general inhibitors against the Amyloid β 1-42 peptide (Aβ) (panel A), the islet amylin polypeptide (IAPP, or amylin, which is implicated in type 2 diabetes) (panel B), and transthyretin (TTR) (panel C) amyloidosis (FIG. 6). […] As described in Example 1, a Thioflavin T (ThT) fluorescence assay was used to monitor Aβ and IAPP aggregation. A Congo Red dye-binding assay was used to monitor TTR fibrillization. For inhibition against Aβ, peptides were co-incubated at 4-fold excess of Aβ at RT in neutral pH buffer containing ThT. Note that the results for α1 differ somewhat from what are included in Example 1 because the assay conditions were altered slightly to slow the process down to favor oligomerization of Aβ (rather than fibril elongation) by lowering the temperature to 25° C. […] For inhibition against IAPP, peptides were co-incubated at 8-fold excess of IAPP at 37° C. in neutral pH buffer containing 20 μM ThT. For inhibition against TTR, peptides were co-incubated at 10-fold excess of monomeric TTR.

Data set [4] deals with T3, TTR (Homo sapiens, UniProt P02766).
T3 construct: purchased Lee Biosolutions, St. Louis Mo; 496-11
As to the kind of experiment: Immobilized designs on agarose beads, binding of TTR from solution (dot blot). To be noted: immobilized design; for binding of pre-incubated, toxic oligomer-containing TTR: TTR pre-incubated at low pH for 24 hrs.

Data set [5] concerns the target T4, Aβ (1-42) (Homo sapiens, UniProt P05067).
T4 construct: Aβ (1-42) (AMYD-002; CPC Scientific, Sunnyvale Calif.); purchased CPC Scientific, Sunnyvale Calif; AMYD-002
As to the kind of experiment: Aβ fibrillization assay (Thioflavin T fluorescence). The format is biochemical. To be noted: for time of aggregation at which the inhibitory effect is exerted: 10:1 excess, 37° C., ThT; for inhibition of Aβ fibril formation: co-incubated in 10:1 excess (100 μM peptide, 10 μM Aβ), pH 7.4, 37° C., measured at 22 hours; for inhibition of aggregation of pre-aggregated, toxic Aβ: designs added to Aβ pre-aggregated for 6 hrs, versus aggregation in the absence of inhibitor. As to the method: Similarly, the designs were co-incubated (in 10:1 excess) with Aβ at pH 7.4 and followed fibril formation with ThT fluorescence changes upon binding at 37° C. (FIG. 2c). As observed for TTR, both α1 and α3 inhibited aggregation. Again α1 was more efficient, inhibiting approximately 87% of fibril formation compared with 66% for α3, when measured after the reaction stabilized at 22 hours. […] The 37° C. studies are reported here, though, for comparison with TTR, which aggregates very slowly at 25° C.
Aβ (1-42) (AMYD-002; CPC Scientific, Sunnyvale Calif.) was stored as 2 mg/mL stock in hexafluoroisopropanol (HFIP) at −18° C. Prior to use, the stock solution was thawed, an aliquot taken and the HFIP was removed under a gentle stream of air. A 1 mg/mL stock solution of Aβ was made in 5 mM NaOH and sonicated for 5-10 minutes. The stock was filtered through a 0.22 μm cellulose filter (Costar Spin-X; Corning Inc, NY). The concentration of stock Aβ was determined by first diluting the stock 1:50 in 5 mM NaOH then taking the absorbance at 220 nm (ε220=50,000 cm^−1 M^−1). Aliquots of the NaOH stock were placed in separate wells of a 96-well black-walled fluorescence plate (Nunc) and immediately diluted in PBS (11 mM phosphate) containing 20 μM Thioflavin T (ThT) to give 150 μL of 10 μM Aβ at pH 7.5. Peptide inhibitors were added directly to 10 μM Aβ samples from concentrated aqueous stocks. Covered plates were incubated at 37° C. and were periodically removed for fluorescence measurements. ThT fluorescence was measured at λex=450 nm and λem=480 nm using a Tecan Safire2 plate reader.
as §1

Data set [6] relates to Aβ, IAPP and TTR amyloidosis / toxic oligomer. As to the kind of experiment: Inhibitory activity summary: inhibition of aggregation and/or binding of toxic oligomer. Format: biochemical. As to the method: In addition, FIG. 5 contains ‘control’ designs aimed at reverse engineering the α1 design, which is presented in more detail in Example 3. […] These designs are both linear and cyclic peptides designed to be hairpins.
The “control” designs were tested as general inhibitors against the Amyloid β 1-42 peptide (Aβ) (panel A), the islet amylin polypeptide (IAPP, or amylin, which is implicated in type 2 diabetes) (panel B), and transthyretin (TTR) (panel C) amyloidosis (FIG. 6). […] As described in Example 1, a Thioflavin T (ThT) fluorescence assay was used to monitor Aβ and IAPP aggregation. A Congo Red dye-binding assay was used to monitor TTR fibrillization. For inhibition against Aβ, peptides were co-incubated at 4-fold excess of Aβ at RT in neutral pH buffer containing ThT. […] For inhibition against IAPP, peptides were co-incubated at 8-fold excess of IAPP at 37° C. in neutral pH buffer containing 20 μM ThT. For inhibition against TTR, peptides were co-incubated at 10-fold excess of monomeric TTR.
The data in FIG. 6 were normalized to ThT fluorescence of the negative (uninhibited) control (black squares). Inhibition traces are ordered vertically according to sequence identity to α1 (see Table 1). Sigmoidal fits to data are included. Controls are identical throughout a single panel, and traces for inhibition samples are colored while the uninhibited aggregation profiles are in black.

Data set [7] has as its system human neuroblastoma cell line SH-SY5Y.
Method: The toxicity of aggregates was tested against the human neuroblastoma cell line SH-SY5Y in an MTT cell viability assay. The human neuroblastoma cell line SH-SY5Y (CRL-226; American Type Culture Collection) was grown in 75 cm^2 flasks in 1:1 DMEM/F12 (CellGro) supplemented with 10% FBS and 50 units/mL penicillin/50 μg/mL streptomycin (complete media), and incubated at 37° C. in humidified 5% CO2 environment. Cells were routinely passaged when they reached 90% confluence by addition of trypsin (Gibco) and replated at a ratio of 1:10 in complete media. Cells were plated to a density of 25,000 cells/well in a 96-well plate (100 μL/well) and allowed to attach overnight. The cell assay was performed as described by Reixach et al. (41).

T4 sequence (P05067 672-713 limits assumed): as above

By inhibition is commonly meant the relative decrease from the control value, in per cent. As to `CSCC[C@@H]1NC(=O)[C@@H]([C@H](C)O)NC(=O)[C@H](Cc2c[nH]c3ccccc23)NC(=O)[C@@H](C)NC(=O)[C@H](C)NC(=O)[C@H](C)NC(=O)[C@H](C)NC(=O)[C@H](CC(N)=O)NC(=O)[C@H]([C@@H](C)O)NC(=O)[C@@H](Cc2c[nH]c3ccccc23)NC(=O)[C@H](CO)NC(=O)[C@@H](CCCCN)NC(=O)[C@H](CCC(N)=O)NC(=O)[C@@H](CCC(N)=O)NC(=O)[C@H](CCCCN)NC(=O)[C@H](CC(N)=O)NC(=O)[C@H]2CCCN2C(=O)[C@H](CCC(=O)O)NC(=O)[C@@H](CCCCN)NC(=O)[C@H](CC(C)C)NC(=O)[C@@H](CCC(N)=O)NC1=O` [α3] (cyclo([dQ]Q[dK]S[dW]TNAAA[dA]W[dT]M[dQ]L[dK]E[dP]NK)), the “binding of pre-aggregated, toxic Aβ” value in data set [1] is “bound pre-aggregated, toxic Aβ preferentially”. Also, in data set [2] (NMR conditions: very high sample concentrations, 50 mM potassium phosphate, 100 mM KCl pH 5.8), the “association state in solution” value was “well-behaved monomers”. The solubility result in data set [2] is recorded as “soluble”. Besides, the “inhibition of the remaining TTR aggregation” value in data set [3] amounted to 77%. Further, in data set [3] (peptide co-incubated in excess 20:1 (800 μM) with 40 μM TTR monomer, pH 4.5, 37° C., after 48 hours, relative to TTR alone at low pH, read-out: percentage inhibition of TTR aggregation), the inhibition at 800 µM was determined as 56%. Further, the “binding of pre-incubated, toxic oligomer-containing TTR” value (“binding of pre-incubated” for short) in data set [4] was “to a greater extent than the rc and β controls; also recorded: more strongly bound”. Also, in data set [5], the “time of aggregation at which the inhibitory effect is exerted” value is “approximately 6 hrs”; the “inhibition of Aβ fibril formation” value is 66%; the “inhibition of aggregation of pre-aggregated, toxic Aβ” value stood at 96%.

Consider “Ac-RGEmNiSwMNEYSGWtMnLkMGR-NH2 [peptide #1]”, for which the “binding of pre-aggregated, toxic Aβ” value in data set [1] (listed as α1) is reported as “preferentially bound the pre-aggregated, toxic form of Aβ”. Also, the “binding of fresh, monomeric Aβ” value in data set [1] (fresh (0 h) Aβ) is “did not bind”. Further, the “Inhibits Aggregation and/or binds oligomer?” value in data set [6] was “demonstrate activity and yes”. Further, in data set [3], the “inhibition of the remaining TTR aggregation” value turned out to be 81%. For the same molecule, the “percentage inhibition of TTR aggregation” value in data set [3] (peptide co-incubated in excess 20:1 (800 μM) with 40 μM TTR monomer, pH 4.5, 37° C., after 48 hours, relative to TTR alone at low pH) is recorded as 72%. The “binding of native, tetrameric TTR” value in data set [4] is given as “did not bind”. The “binding of pre-incubated” value in data set [4] (listed as α1) is “to a greater extent than the rc and β controls; also recorded: more strongly bound”. The “inhibition of Aβ aggregation at 4-fold excess” value in data set [5] (4-fold excess of peptide, 25° C. (RT), neutral pH buffer with ThT, listed as α1) is given as “essentially completely abolishes aggregation; also recorded: quenches Aβ aggregation”. In data set [5], the “time of aggregation at which the inhibitory effect is exerted” value is listed as “approximately 6 hrs”; the “inhibition of Aβ fibril formation” value was “approximately 87%”; the “inhibition of aggregation of pre-aggregated, toxic Aβ” value was determined as 97%.

As for “Aβ: β-amyloid peptide 1-42 (AMYD-002; CPC Scientific)”, the “viability of treated cells” value in data set [7] is “less than 50%”.

Take `CSCC[C@H](NC(=O)[C@@H](CCCCN)NC(=O)[C@H](CS)NC(=O)[C@@H](CC(N)=O)NC(=O)[C@H](CCSC)NC(=O)[C@H](NC(=O)[C@H](Cc1c[nH]c2ccccc12)NC(=O)CNC(=O)[C@H](Cc1ccc(O)cc1)NC(=O)[C@H](Cc1ccc(O)cc1)NC(=O)[C@H](CCC(=O)O)NC(=O)[C@H](CC(N)=O)NC(=O)[C@H](CCSC)NC(=O)[C@@H](Cc1c[nH]c2ccccc12)NC(=O)[C@H](Cc1ccccc1)NC(=O)[C@@H](Cc1ccc(O)cc1)NC(=O)[C@H](CC(N)=O)NC(=O)[C@@H](CCSC)NC(=O)[C@H](CCC(=O)O)NC(=O)CNC(=O)[C@H](CCCNC(=N)N)NC(C)=O)[C@H](C)O)C(=O)NCC(=O)N[C@@H](CCCNC(=N)N)C(N)=O` [α2] (Ac-RGE[dM]N[dY]F[dW]MNEYYGW[dT]M[dN]C[dK]MGR-NH2): the “binding of pre-aggregated, toxic Aβ” value in data set [1] is on record as “bound pre-aggregated, toxic Aβ preferentially”. Moreover, the solubility entry in data set [2] is reported as “sparingly soluble; also recorded: not soluble enough for NMR”. The “binding of pre-incubated” value in data set [4] is “to a greater extent than the rc and β controls; also recorded: more strongly bound”.
